Measured values published in US4508663A, “Process for preparing thiosulfenamide derivatives of N-phosphonomethylglycinonitriles” (Monsanto Company, priority 1983, dated 1985).

Legend:
Assay in all cases: post-emergence herbicidal activity, greenhouse
Type in all cases: in vivo
Barnyardgrass = tested on: Barnyardgrass
How it was run: (§1)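 Plants grown from seed or perennial propagules in greenhouse soil pans were sprayed at two to three weeks with compound solution or suspension containing about 0.4% emulsifier, at the stated application rates. Injury relative to untreated controls was scored at approximately two and four weeks after treatment on a post-emergence activity index.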

Canada Thistle = conditions: Table I, 4 WAT
How it was run: as §1

Cocklebur = tested on: Cocklebur
How it was run: as §1

Crabgrass = conditions: Table II
How it was run: as §1

Downy Brome = tested on: Downy Brome
How it was run: as §1

Hemp Sesbania = conditions: Table II
How it was run: as §1

Johnsongrass = conditions: Table I, 4 WAT
How it was run: as §1

Lambsquarters = tested on: Lambsquarters
How it was run: as §1

Morningglory = tested on: Morningglory
How it was run: as §1

Panicum Spp = conditions: Table II
How it was run: as §1

Quackgrass = conditions: Table I, 4 WAT
How it was run: as §1

Rice = conditions: Table II
How it was run: as §1

Smartweed = conditions: Table I, 4 WAT
How it was run: as §1

Sorghum = conditions: Table II
How it was run: as §1

Soybean = conditions: Table II
How it was run: as §1

Sugar Beet = conditions: Table II
How it was run: as §1

Velvetleaf = tested on: Velvetleaf
How it was run: as §1

Wheat = conditions: Table II
How it was run: as §1

Wild Buckwheat = conditions: Table II
How it was run: as §1

Yellow Nutsedge = conditions: Table I, 4 WAT
How it was run: as §1

CSSN(CC#N)CP(=O)(Oc1ccccc1)Oc1ccccc1 [VII]
post-emergence herbicidal activity index (Barnyardgrass; Table I, 4 WAT, 5.6 kg/h): 2 (50-74% control)
post-emergence herbicidal activity index (Barnyardgrass; Table I, 4 WAT, 11.2 kg/h): 3 (75-99% control)
post-emergence herbicidal activity index (Barnyardgrass; Table II, 2 WAT, 0.056 kg/h): 0 (0-24% control)
post-emergence herbicidal activity index (Barnyardgrass; Table II, 2 WAT, 0.28 kg/h): 0 (0-24% control)
post-emergence herbicidal activity index (Barnyardgrass; Table II, 2 WAT, 1.12 kg/h): 1 (25-49% control)
post-emergence herbicidal activity index (Barnyardgrass; Table II, 2 WAT, 5.6 kg/h): 3 (75-99% control)
post-emergence herbicidal activity index (Barnyardgrass; Table II, 4 WAT, 1.12 kg/h): 1 (25-49% control)
post-emergence herbicidal activity index (Barnyardgrass; Table II, 4 WAT, 5.6 kg/h): 3 (75-99% control)
post-emergence herbicidal activity index (Canada Thistle; 5.6 kg/h): 4 (100% control)
post-emergence herbicidal activity index (Canada Thistle; 11.2 kg/h): 4 (100% control)
post-emergence herbicidal activity index (Cocklebur; Table I, 4 WAT, 5.6 kg/h): 2 (50-74% control)
post-emergence herbicidal activity index (Cocklebur; Table I, 4 WAT, 11.2 kg/h): 3 (75-99% control)
post-emergence herbicidal activity index (Cocklebur; Table II, 2 WAT, 0.056 kg/h): 0 (0-24% control)
post-emergence herbicidal activity index (Cocklebur; Table II, 2 WAT, 0.28 kg/h): 1 (25-49% control)
post-emergence herbicidal activity index (Cocklebur; Table II, 2 WAT, 1.12 kg/h): 1 (25-49% control)
post-emergence herbicidal activity index (Cocklebur; Table II, 2 WAT, 5.6 kg/h): 2 (50-74% control)
post-emergence herbicidal activity index (Cocklebur; Table II, 4 WAT, 1.12 kg/h): 1 (25-49% control)
post-emergence herbicidal activity index (Cocklebur; Table II, 4 WAT, 5.6 kg/h): 3 (75-99% control)
post-emergence herbicidal activity index (Crabgrass; 2 WAT, 0.056 kg/h): 0 (0-24% control)
post-emergence herbicidal activity index (Crabgrass; 2 WAT, 0.28 kg/h): 1 (25-49% control)
post-emergence herbicidal activity index (Crabgrass; 2 WAT, 1.12 kg/h): 3 (75-99% control)
post-emergence herbicidal activity index (Crabgrass; 2 WAT, 5.6 kg/h): 4 (100% control)
post-emergence herbicidal activity index (Crabgrass; 4 WAT, 1.12 kg/h): 3 (75-99% control)
post-emergence herbicidal activity index (Crabgrass; 4 WAT, 5.6 kg/h): 4 (100% control)
post-emergence herbicidal activity index (Downy Brome; Table I, 4 WAT, 5.6 kg/h): 3 (75-99% control)
post-emergence herbicidal activity index (Downy Brome; Table I, 4 WAT, 11.2 kg/h): 2 (50-74% control)
post-emergence herbicidal activity index (Downy Brome; Table II, 2 WAT, 0.056 kg/h): 0 (0-24% control)
post-emergence herbicidal activity index (Downy Brome; Table II, 2 WAT, 0.28 kg/h): 0 (0-24% control)
post-emergence herbicidal activity index (Downy Brome; Table II, 2 WAT, 1.12 kg/h): 1 (25-49% control)
post-emergence herbicidal activity index (Downy Brome; Table II, 2 WAT, 5.6 kg/h): 1 (25-49% control)
post-emergence herbicidal activity index (Downy Brome; Table II, 4 WAT, 1.12 kg/h): 0 (0-24% control)
post-emergence herbicidal activity index (Downy Brome; Table II, 4 WAT, 5.6 kg/h): 1 (25-49% control)
post-emergence herbicidal activity index (Hemp Sesbania; 2 WAT, 0.056 kg/h): 0 (0-24% control)
post-emergence herbicidal activity index (Hemp Sesbania; 2 WAT, 0.28 kg/h): 0 (0-24% control)
post-emergence herbicidal activity index (Hemp Sesbania; 2 WAT, 1.12 kg/h): 0 (0-24% control)
post-emergence herbicidal activity index (Hemp Sesbania; 2 WAT, 5.6 kg/h): 1 (25-49% control)
post-emergence herbicidal activity index (Hemp Sesbania; 4 WAT, 1.12 kg/h): 0 (0-24% control)
post-emergence herbicidal activity index (Hemp Sesbania; 4 WAT, 5.6 kg/h): 1 (25-49% control)
post-emergence herbicidal activity index (Johnsongrass; 5.6 kg/h): 3 (75-99% control)
post-emergence herbicidal activity index (Johnsongrass; 11.2 kg/h): 4 (100% control)
post-emergence herbicidal activity index (Lambsquarters; Table I, 4 WAT, 5.6 kg/h): 3 (75-99% control)
post-emergence herbicidal activity index (Lambsquarters; Table I, 4 WAT, 11.2 kg/h): 4 (100% control)
post-emergence herbicidal activity index (Lambsquarters; Table II, 2 WAT, 0.056 kg/h): 0 (0-24% control)
post-emergence herbicidal activity index (Lambsquarters; Table II, 2 WAT, 0.28 kg/h): 1 (25-49% control)
post-emergence herbicidal activity index (Lambsquarters; Table II, 2 WAT, 1.12 kg/h): 1 (25-49% control)
post-emergence herbicidal activity index (Lambsquarters; Table II, 2 WAT, 5.6 kg/h): 3 (75-99% control)
post-emergence herbicidal activity index (Lambsquarters; Table II, 4 WAT, 1.12 kg/h): 0 (0-24% control)
post-emergence herbicidal activity index (Lambsquarters; Table II, 4 WAT, 5.6 kg/h): 4 (100% control)
post-emergence herbicidal activity index (Morningglory; Table I, 4 WAT, 5.6 kg/h): 2 (50-74% control)
post-emergence herbicidal activity index (Morningglory; Table I, 4 WAT, 11.2 kg/h): 2 (50-74% control)
post-emergence herbicidal activity index (Morningglory; Table II, 2 WAT, 0.056 kg/h): 0 (0-24% control)
post-emergence herbicidal activity index (Morningglory; Table II, 2 WAT, 0.28 kg/h): 1 (25-49% control)
post-emergence herbicidal activity index (Morningglory; Table II, 2 WAT, 1.12 kg/h): 1 (25-49% control)
post-emergence herbicidal activity index (Morningglory; Table II, 2 WAT, 5.6 kg/h): 2 (50-74% control)
post-emergence herbicidal activity index (Morningglory; Table II, 4 WAT, 1.12 kg/h): 0 (0-24% control)
post-emergence herbicidal activity index (Morningglory; Table II, 4 WAT, 5.6 kg/h): 2 (50-74% control)
post-emergence herbicidal activity index (Panicum Spp; 2 WAT, 0.056 kg/h): 0 (0-24% control)
post-emergence herbicidal activity index (Panicum Spp; 2 WAT, 0.28 kg/h): 0 (0-24% control)
post-emergence herbicidal activity index (Panicum Spp; 2 WAT, 1.12 kg/h): 0 (0-24% control)
post-emergence herbicidal activity index (Panicum Spp; 2 WAT, 5.6 kg/h): 1 (25-49% control)
post-emergence herbicidal activity index (Panicum Spp; 4 WAT, 1.12 kg/h): 0 (0-24% control)
post-emergence herbicidal activity index (Panicum Spp; 4 WAT, 5.6 kg/h): 2 (50-74% control)
post-emergence herbicidal activity index (Quackgrass; 5.6 kg/h): 2 (50-74% control)
post-emergence herbicidal activity index (Quackgrass; 11.2 kg/h): 1 (25-49% control)
post-emergence herbicidal activity index (Rice; 2 WAT, 0.056 kg/h): 0 (0-24% control)
post-emergence herbicidal activity index (Rice; 2 WAT, 0.28 kg/h): 0 (0-24% control)
post-emergence herbicidal activity index (Rice; 2 WAT, 1.12 kg/h): 0 (0-24% control)
post-emergence herbicidal activity index (Rice; 2 WAT, 5.6 kg/h): 3 (75-99% control)
post-emergence herbicidal activity index (Rice; 4 WAT, 1.12 kg/h): 0 (0-24% control)
post-emergence herbicidal activity index (Rice; 4 WAT, 5.6 kg/h): 3 (75-99% control)
post-emergence herbicidal activity index (Smartweed; 5.6 kg/h): 2 (50-74% control)
post-emergence herbicidal activity index (Smartweed; 11.2 kg/h): 4 (100% control)
post-emergence herbicidal activity index (Sorghum; 2 WAT, 0.056 kg/h): 0 (0-24% control)
post-emergence herbicidal activity index (Sorghum; 2 WAT, 0.28 kg/h): 1 (25-49% control)
post-emergence herbicidal activity index (Sorghum; 2 WAT, 1.12 kg/h): 1 (25-49% control)
post-emergence herbicidal activity index (Sorghum; 2 WAT, 5.6 kg/h): 2 (50-74% control)
post-emergence herbicidal activity index (Sorghum; 4 WAT, 1.12 kg/h): 2 (50-74% control)
post-emergence herbicidal activity index (Sorghum; 4 WAT, 5.6 kg/h): 3 (75-99% control)
post-emergence herbicidal activity index (Soybean; 2 WAT, 0.056 kg/h): 0 (0-24% control)
post-emergence herbicidal activity index (Soybean; 2 WAT, 0.28 kg/h): 0 (0-24% control)
post-emergence herbicidal activity index (Soybean; 2 WAT, 1.12 kg/h): 1 (25-49% control)
post-emergence herbicidal activity index (Soybean; 2 WAT, 5.6 kg/h): 2 (50-74% control)
post-emergence herbicidal activity index (Soybean; 4 WAT, 1.12 kg/h): 1 (25-49% control)
post-emergence herbicidal activity index (Soybean; 4 WAT, 5.6 kg/h): 2 (50-74% control)
post-emergence herbicidal activity index (Sugar Beet; 2 WAT, 0.056 kg/h): 0 (0-24% control)
post-emergence herbicidal activity index (Sugar Beet; 2 WAT, 0.28 kg/h): 0 (0-24% control)
post-emergence herbicidal activity index (Sugar Beet; 2 WAT, 1.12 kg/h): 0 (0-24% control)
post-emergence herbicidal activity index (Sugar Beet; 2 WAT, 5.6 kg/h): 1 (25-49% control)
post-emergence herbicidal activity index (Sugar Beet; 4 WAT, 1.12 kg/h): 0 (0-24% control)
post-emergence herbicidal activity index (Sugar Beet; 4 WAT, 5.6 kg/h): 1 (25-49% control)
post-emergence herbicidal activity index (Velvetleaf; Table I, 4 WAT, 5.6 kg/h): 1 (25-49% control)
post-emergence herbicidal activity index (Velvetleaf; Table I, 4 WAT, 11.2 kg/h): 1 (25-49% control)
post-emergence herbicidal activity index (Velvetleaf; Table II, 2 WAT, 0.056 kg/h): 0 (0-24% control)
post-emergence herbicidal activity index (Velvetleaf; Table II, 2 WAT, 0.28 kg/h): 0 (0-24% control)
post-emergence herbicidal activity index (Velvetleaf; Table II, 2 WAT, 1.12 kg/h): 1 (25-49% control)
post-emergence herbicidal activity index (Velvetleaf; Table II, 2 WAT, 5.6 kg/h): 2 (50-74% control)
post-emergence herbicidal activity index (Velvetleaf; Table II, 4 WAT, 1.12 kg/h): 0 (0-24% control)
post-emergence herbicidal activity index (Velvetleaf; Table II, 4 WAT, 5.6 kg/h): 2 (50-74% control)
post-emergence herbicidal activity index (Wheat; 2 WAT, 0.056 kg/h): 0 (0-24% control)
post-emergence herbicidal activity index (Wheat; 2 WAT, 0.28 kg/h): 1 (25-49% control)
post-emergence herbicidal activity index (Wheat; 2 WAT, 1.12 kg/h): 1 (25-49% control)
post-emergence herbicidal activity index (Wheat; 2 WAT, 5.6 kg/h): 2 (50-74% control)
post-emergence herbicidal activity index (Wheat; 4 WAT, 1.12 kg/h): 0 (0-24% control)
post-emergence herbicidal activity index (Wheat; 4 WAT, 5.6 kg/h): 3 (75-99% control)
post-emergence herbicidal activity index (Wild Buckwheat; 2 WAT, 0.056 kg/h): 0 (0-24% control)
post-emergence herbicidal activity index (Wild Buckwheat; 2 WAT, 0.28 kg/h): 1 (25-49% control)
post-emergence herbicidal activity index (Wild Buckwheat; 2 WAT, 1.12 kg/h): 0 (0-24% control)
post-emergence herbicidal activity index (Wild Buckwheat; 2 WAT, 5.6 kg/h): 2 (50-74% control)
post-emergence herbicidal activity index (Wild Buckwheat; 4 WAT, 1.12 kg/h): 0 (0-24% control)
post-emergence herbicidal activity index (Wild Buckwheat; 4 WAT, 5.6 kg/h): 3 (75-99% control)
post-emergence herbicidal activity index (Yellow Nutsedge; 5.6 kg/h): 2 (50-74% control)
post-emergence herbicidal activity index (Yellow Nutsedge; 11.2 kg/h): 2 (50-74% control)
